According to the supplement of paper PMC10307832:

Tests used:
Test in all cases: relative viability (nuclei count vs DMSO), 5 days (fraction); higher = more cells survive
[1] = compound: CC1=CC=C(C=C1)C(=O)CN2C3=C(CCCC3)SC2=N [Pifithrin_alpha] + Cc1nc(NC(=O)N2CCC[C@H]2C(N)=O)sc1-c1ccnc(C(C)(C)C(F)(F)F)c1 [Alpelisib] (partner 2 µM)
How it was run: (§1)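 Cells from lung cancer lines were seeded into 1536-well plates and, one day later, dosed by pin tool. Treatments were either a single drug or a fixed dose of an anchor drug with five library-drug doses (not always all listed) in √10 steps. After 5 days, nuclei were stained in a one-step fixation (final 0.05% Triton X-100, 1% formaldehyde, 1 ug/ml Hoechst) and counted on 4× images, and relative viability is the treated-to-vehicle nuclei ratio, as the median of duplicate plates.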

Bemcentinib + AZD7762 = compound: Nc1nc(Nc2ccc3c(c2)CC[C@@H](N2CCCC2)CC3)nn1-c1cc2c(nn1)-c1ccccc1CCC2 [Bemcentinib] + NC(=O)Nc1cc(-c2cccc(F)c2)sc1C(=O)N[C@H]1CCCNC1 [AZD7762] (partner 0.2 µM)
How it was run: as §1

Bemcentinib + Navitoclax = compound: Nc1nc(Nc2ccc3c(c2)CC[C@@H](N2CCCC2)CC3)nn1-c1cc2c(nn1)-c1ccccc1CCC2 [Bemcentinib] + CC1(C)CCC(c2ccc(Cl)cc2)=C(CN2CCN(c3ccc(C(=O)NS(=O)(=O)c4ccc(N[C@H](CCN5CCOCC5)CSc5ccccc5)c(S(=O)(=O)C(F)(F)F)c4)cc3)CC2)C1 [Navitoclax] (partner 0.5 µM)
How it was run: as §1

Axitinib + Tozasertib = compound: CNC(=O)c1ccccc1Sc1ccc2c(/C=C/c3ccccn3)n[nH]c2c1 [Axitinib] + Cc1cc(Nc2cc(N3CCN(C)CC3)nc(Sc3ccc(NC(=O)C4CC4)cc3)n2)n[nH]1 [Tozasertib] (partner 0.1 µM)
How it was run: as §1

Cell Line: PC-3 [JPC-3]
- relative viability ([1]; first compound 1 µM): 0.953
- relative viability ([1]; first compound 3.162 µM): 0.945
- relative viability ([1]; first compound 10 µM): 0.975
- relative viability ([1]; first compound 31.62 µM): 0.884
- relative viability ([1]; first compound 100 µM): 0.882
- relative viability (Bemcentinib + AZD7762; first compound 0.04 µM): 0.799
- relative viability (Bemcentinib + AZD7762; first compound 0.1265 µM): 0.899
- relative viability (Bemcentinib + AZD7762; first compound 0.4 µM): 0.828
- relative viability (Bemcentinib + AZD7762; first compound 1.265 µM): 0.847
- relative viability (Bemcentinib + AZD7762; first compound 4 µM): 0.812
- relative viability (Bemcentinib + Navitoclax; first compound 0.04 µM): 0.803
- relative viability (Bemcentinib + Navitoclax; first compound 0.1265 µM): 0.827
- relative viability (Bemcentinib + Navitoclax; first compound 0.4 µM): 0.865
- relative viability (Bemcentinib + Navitoclax; first compound 1.265 µM): 0.848
- relative viability (Bemcentinib + Navitoclax; first compound 4 µM): 0.826
- relative viability (Axitinib + Tozasertib; first compound 0.005 µM): 0.96
- relative viability (Axitinib + Tozasertib; first compound 0.01581 µM): 0.899
- relative viability (Axitinib + Tozasertib; first compound 0.05 µM): 1
- relative viability (Axitinib + Tozasertib; first compound 0.1581 µM): 0.855
- relative viability (Axitinib + Tozasertib; first compound 0.5 µM): 1.03

Cell Line: HCC-366
- relative viability ([1]; first compound 1 µM): 0.282
- relative viability ([1]; first compound 3.162 µM): 0.3
- relative viability ([1]; first compound 10 µM): 0.329
- relative viability ([1]; first compound 100 µM): 0.234
- relative viability (Bemcentinib + AZD7762; first compound 0.04 µM): 0.253
- relative viability (Bemcentinib + AZD7762; first compound 0.1265 µM): 0.382
- relative viability (Bemcentinib + AZD7762; first compound 0.4 µM): 0.248
- relative viability (Bemcentinib + AZD7762; first compound 1.265 µM): 0.163
- relative viability (Bemcentinib + AZD7762; first compound 4 µM): 0.208
- relative viability (Bemcentinib + Navitoclax; first compound 0.04 µM): 1.11
- relative viability (Bemcentinib + Navitoclax; first compound 0.1265 µM): 1.23
- relative viability (Bemcentinib + Navitoclax; first compound 0.4 µM): 1.11
- relative viability (Bemcentinib + Navitoclax; first compound 1.265 µM): 1.07
- relative viability (Bemcentinib + Navitoclax; first compound 4 µM): 1.03
- relative viability (Axitinib + Tozasertib; first compound 0.005 µM): 0.135
- relative viability (Axitinib + Tozasertib; first compound 0.01581 µM): 0.116
- relative viability (Axitinib + Tozasertib; first compound 0.05 µM): 0.133
- relative viability (Axitinib + Tozasertib; first compound 0.1581 µM): 0.136
- relative viability (Axitinib + Tozasertib; first compound 0.5 µM): 0.142

Cell Line: NCI-H2405
- relative viability ([1]; first compound 3.162 µM): 0.723
- relative viability ([1]; first compound 10 µM): 0.718
- relative viability ([1]; first compound 31.62 µM): 0.675
- relative viability ([1]; first compound 100 µM): 0.665
- relative viability (Bemcentinib + AZD7762; first compound 0.04 µM): 0.744
- relative viability (Bemcentinib + AZD7762; first compound 0.1265 µM): 0.875
- relative viability (Bemcentinib + AZD7762; first compound 0.4 µM): 0.887
- relative viability (Bemcentinib + AZD7762; first compound 1.265 µM): 0.819
- relative viability (Bemcentinib + AZD7762; first compound 4 µM): 0.605
- relative viability (Bemcentinib + Navitoclax; first compound 0.04 µM): 0.788
- relative viability (Bemcentinib + Navitoclax; first compound 0.1265 µM): 0.868
- relative viability (Bemcentinib + Navitoclax; first compound 0.4 µM): 0.859
- relative viability (Bemcentinib + Navitoclax; first compound 1.265 µM): 0.877
- relative viability (Bemcentinib + Navitoclax; first compound 4 µM): 0.84
- relative viability (Axitinib + Tozasertib; first compound 0.005 µM): 0.773
- relative viability (Axitinib + Tozasertib; first compound 0.01581 µM): 0.795
- relative viability (Axitinib + Tozasertib; first compound 0.05 µM): 0.853
- relative viability (Axitinib + Tozasertib; first compound 0.1581 µM): 0.785
- relative viability (Axitinib + Tozasertib; first compound 0.5 µM): 1

Cell Line: LU99A
- relative viability ([1]; first compound 1 µM): 0.503
- relative viability ([1]; first compound 3.162 µM): 0.576
- relative viability ([1]; first compound 10 µM): 0.543
- relative viability ([1]; first compound 100 µM): 0.646
- relative viability (Bemcentinib + AZD7762; first compound 0.04 µM): 0.377
- relative viability (Bemcentinib + AZD7762; first compound 0.1265 µM): 0.375
- relative viability (Bemcentinib + AZD7762; first compound 0.4 µM): 0.394
- relative viability (Bemcentinib + AZD7762; first compound 1.265 µM): 0.344
- relative viability (Bemcentinib + AZD7762; first compound 4 µM): 0.35
- relative viability (Bemcentinib + Navitoclax; first compound 0.04 µM): 0.766
- relative viability (Bemcentinib + Navitoclax; first compound 0.1265 µM): 0.93
- relative viability (Bemcentinib + Navitoclax; first compound 0.4 µM): 0.697
- relative viability (Bemcentinib + Navitoclax; first compound 1.265 µM): 0.755
- relative viability (Bemcentinib + Navitoclax; first compound 4 µM): 0.821
- relative viability (Axitinib + Tozasertib; first compound 0.005 µM): 0.27
- relative viability (Axitinib + Tozasertib; first compound 0.01581 µM): 0.266
- relative viability (Axitinib + Tozasertib; first compound 0.05 µM): 0.264
- relative viability (Axitinib + Tozasertib; first compound 0.1581 µM): 0.369
- relative viability (Axitinib + Tozasertib; first compound 0.5 µM): 0.419

Cell Line: LCLC-97TM1
- relative viability ([1]; first compound 3.162 µM): 0.226
- relative viability ([1]; first compound 10 µM): 0.224
- relative viability ([1]; first compound 100 µM): 0.236
- relative viability (Bemcentinib + AZD7762; first compound 0.04 µM): 0.183
- relative viability (Bemcentinib + AZD7762; first compound 0.1265 µM): 0.298
- relative viability (Bemcentinib + AZD7762; first compound 0.4 µM): 0.186
- relative viability (Bemcentinib + AZD7762; first compound 1.265 µM): 0.28
- relative viability (Bemcentinib + AZD7762; first compound 4 µM): 0.309
- relative viability (Bemcentinib + Navitoclax; first compound 0.04 µM): 0.398
- relative viability (Bemcentinib + Navitoclax; first compound 0.1265 µM): 0.487
- relative viability (Bemcentinib + Navitoclax; first compound 1.265 µM): 0.479
- relative viability (Bemcentinib + Navitoclax; first compound 4 µM): 0.636
- relative viability (Axitinib + Tozasertib; first compound 0.005 µM): 0.251
- relative viability (Axitinib + Tozasertib; first compound 0.01581 µM): 0.271
- relative viability (Axitinib + Tozasertib; first compound 0.05 µM): 0.276
- relative viability (Axitinib + Tozasertib; first compound 0.1581 µM): 0.415
- relative viability (Axitinib + Tozasertib; first compound 0.5 µM): 0.393

Cell Line: A-427
- relative viability ([1]; first compound 1 µM): 0.756
- relative viability ([1]; first compound 3.162 µM): 1.04
- relative viability ([1]; first compound 10 µM): 1.03
- relative viability ([1]; first compound 31.62 µM): 0.836
- relative viability ([1]; first compound 100 µM): 1
- relative viability (Bemcentinib + AZD7762; first compound 0.04 µM): 0.75
- relative viability (Bemcentinib + AZD7762; first compound 0.1265 µM): 0.856
- relative viability (Bemcentinib + AZD7762; first compound 0.4 µM): 0.746
- relative viability (Bemcentinib + AZD7762; first compound 1.265 µM): 0.63
- relative viability (Bemcentinib + AZD7762; first compound 4 µM): 0.637
- relative viability (Bemcentinib + Navitoclax; first compound 0.1265 µM): 0.946
- relative viability (Bemcentinib + Navitoclax; first compound 0.4 µM): 0.826
- relative viability (Bemcentinib + Navitoclax; first compound 1.265 µM): 0.909
- relative viability (Bemcentinib + Navitoclax; first compound 4 µM): 1.07
- relative viability (Axitinib + Tozasertib; first compound 0.005 µM): 0.206
- relative viability (Axitinib + Tozasertib; first compound 0.01581 µM): 0.193
- relative viability (Axitinib + Tozasertib; first compound 0.05 µM): 0.228
- relative viability (Axitinib + Tozasertib; first compound 0.1581 µM): 0.266
- relative viability (Axitinib + Tozasertib; first compound 0.5 µM): 0.22

Cell Line: EMC-BAC-2
- relative viability ([1]; first compound 1 µM): 0.719
- relative viability ([1]; first compound 3.162 µM): 0.776
- relative viability ([1]; first compound 10 µM): 0.738
- relative viability ([1]; first compound 31.62 µM): 0.56
- relative viability ([1]; first compound 100 µM): 0.822
- relative viability (Bemcentinib + AZD7762; first compound 0.04 µM): 1.14
- relative viability (Bemcentinib + AZD7762; first compound 0.1265 µM): 1.11
- relative viability (Bemcentinib + AZD7762; first compound 0.4 µM): 1.14
- relative viability (Bemcentinib + AZD7762; first compound 1.265 µM): 1.02
- relative viability (Bemcentinib + AZD7762; first compound 4 µM): 1.06
- relative viability (Bemcentinib + Navitoclax; first compound 0.04 µM): 1.15
- relative viability (Bemcentinib + Navitoclax; first compound 0.1265 µM): 1.35
- relative viability (Bemcentinib + Navitoclax; first compound 0.4 µM): 1.27
- relative viability (Bemcentinib + Navitoclax; first compound 1.265 µM): 1.2
- relative viability (Bemcentinib + Navitoclax; first compound 4 µM): 1.23
- relative viability (Axitinib + Tozasertib; first compound 0.005 µM): 0.301
- relative viability (Axitinib + Tozasertib; first compound 0.01581 µM): 0.299
- relative viability (Axitinib + Tozasertib; first compound 0.05 µM): 0.272
- relative viability (Axitinib + Tozasertib; first compound 0.1581 µM): 0.391
- relative viability (Axitinib + Tozasertib; first compound 0.5 µM): 0.412
